Series [1] deals with Single-donor human red blood cells. The series is described as follows: Hemolysis assay. Particulars: hemolysis at 128 µg/ml, fold change relative to SySA-5. Type of series: cell-based. The gist of the method: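 Peptides at 300 μg/ml (SySA library) or 128 μg/ml (SySA-5 optimization library) were incubated in triplicate with washed single-donor RBCs (1 × 10^9 cells/ml) for 3 h at 37 °C. Supernatant A540 was background-normalized to PBS and expressed relative to 1% Triton X-100 (100% hemolysis).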

Series [2] relates to Acinetobacter baumannii AB5075. Particulars: for AB5075 MIC FBS: 100% fetal bovine serum; for AB5075 MIC MH: Mueller-Hinton.
Series [3] has as its system E. coli W3110. Kind of series: Surface-localized antimicrobial display (SLAY), log2 fold change in reads. Type of series: cell-based, Escherichia coli. Particulars: 3 h 37°C; for l2FC_IPTG_15: induced (15 μM IPTG, low induction) vs uninduced; for l2FC_IPTG_100: induced (100 μM IPTG, high induction) vs uninduced. The method, then: SLAY procedures have been detailed previously ([25], [26]). Briefly, 100 μl of E. coli W3110 frozen cells containing the pooled SynCH plasmid library were recovered in 10 ml of LB supplemented with carbenicillin (75 μg/ml) for 2 hours. The culture was then back-diluted to an OD of 0.05, and three triplicate 5-ml cultures were set up in LB supplemented with carbenicillin (75 μg/ml). Triplicate reactions included uninduced (0 μM IPTG), low induction (15 μM IPTG), and high induction (100 μM IPTG). All triplicate cultures were then grown for 3 hours at 37°C. Plasmids from each triplicate culture were isolated via Miniprep, and Illumina sequencing primers (see table S6) were used to produce an amplicon via PCR from plasmids from each culture containing a unique i7 barcode identifier. Amplicons were then gel extracted, cleaned, concentrated, and sent to Genewiz for next-generation sequencing by Illumina HiSeq technology with 30% added Phi-X DNA.
Methods of SLAY analysis have been previously described elsewhere. Here, raw sequencing reads were trimmed of adapter sequences using Flexbar ([30]) and then assessed for quality via FastQC ([31]). Next, trimmed reads were mapped to a reference derived from all possible SynCH sequences using Kallisto ([32]). Last, log2 fold change estimates and other relevant statistics were calculated using DESeq2 ([33]).

From paper PMC9833666, “Designing and identifying β-hairpin peptide macrocycles with antibiotic potential” (Science Advances, 2023) come the findings set out here.

Where two headings read alike, the source gives them in different places. Bridge positions count the residues as written; N and C are the ends. Ends that are not written are not given here. Peptide text beside a SMILES is read from it.

Turning to `CC(C)C[C@@H]1NC(=O)[C@H](CCCNC(=N)N)NC(=O)[C@H](C(C)C)NC(=O)[C@@H]2CSSC[C@H](NC(=O)[C@H](CC(C)C)NC(=O)[C@H](CCCNC(=N)N)NC(=O)[C@H](C(C)C)NC(=O)[C@H](CCCNC(=N)N)NC(=O)[C@@H](N)CSSC[C@@H](C(=O)O)NC(=O)[C@H](CCCNC(=N)N)NC1=O)C(=O)N[C@@H](CCCNC(=N)N)C(=O)N[C@@H](CCCNC(=N)N)C(=O)N[C@@H](CCCNC(=N)N)C(=O)N[C@@H](CCCNC(=N)N)C(=O)N2` [SySA-5.26] (H-CRVRLCRRRRCVRLRC-OH; disulfide 1-16, 6-11 (inferred); N-terminus and C-terminus assumed), in series [1], the “Fold Change Hemolysis” value is 0.8. Moreover, the “AB5075 MIC FBS” value in series [2] (replicate 1), in series [2] (replicate 2) and in series [2] (replicate 3) was over 128 µg/mL throughout. Moreover, the “AB5075 MIC MH” value in series [2] (replicate 1), in series [2] (replicate 2) and in series [2] (replicate 3) was 8 µg/mL each time.
`CC(C)C[C@@H]1NC(=O)[C@H](CCCNC(=N)N)NC(=O)[C@@H]2CSSC[C@H](NC(=O)[C@H](CCCNC(=N)N)NC(=O)[C@H](C(C)C)NC(=O)[C@H](CCCNC(=N)N)NC(=O)[C@@H](N)CSSC[C@@H](C(=O)O)NC(=O)[C@H](CCCNC(=N)N)NC1=O)C(=O)N[C@@H](CCCNC(=N)N)C(=O)N[C@@H](CCCNC(=N)N)C(=O)N[C@@H](CCCNC(=N)N)C(=O)N[C@@H](CCCNC(=N)N)C(=O)N[C@@H](CCCNC(=N)N)C(=O)N[C@@H](CCCCN)C(=O)N2` [SySA-5.27] (H-CRVRCRRRRRKCRLRC-OH; disulfide 1-16, 5-12 (inferred); N-terminus and C-terminus assumed): in series [1], the “Fold Change Hemolysis” value came to 0.6. The “AB5075 MIC FBS” value in series [2] (replicate 1), in series [2] (replicate 2) and in series [2] (replicate 3) was over 128 µg/mL each time. In addition, the “AB5075 MIC MH” value in series [2] (replicate 1), in series [2] (replicate 2) and in series [2] (replicate 3) was 128 µg/mL throughout.
In series [3], “CLRIRVDDRRRRVRITLQVC (disulfide 1-20 (inferred))” displayed a l2FC_IPTG_15 of 0.055 and a l2FC_IPTG_100 of 0.322.
On the same counts, the results for “CLRIRVNDRRRGVKITLEVC (disulfide 1-20 (inferred))” are 0.457 and 0.630.
In series [3], “CRIKIDVDDGRRRVRLELQC (disulfide 1-20 (inferred))” displayed a l2FC_IPTG_15 of 0.041 and a l2FC_IPTG_100 of 0.249.
For “CRIKINIDDRGGTVKLEVQC (disulfide 1-20 (inferred))” the same measures were -0.180 and -0.210.
For “CVTIRVDNGGGGLRITLQVC (disulfide 1-20 (inferred))” the same measures were -0.299 and 0.025.
